For orientation: inhibition in vivo means the relative decrease from the control value, in per cent. One may read the Cmax as the maximum level reached in the sampled fluid or tissue. As a reminder, the bioavailability is dose-corrected exposure relative to a reference, in per cent. Higher therefore signals good availability. The IC50 is the concentration needed to halve the response being measured. A higher IC50 goes with weaker potency in that assay.

SMILES strings stand for the structures. Some results are limits rather than exact numbers.

Consider one compound from ChEMBL document CHEMBL1629455, “Discovery of a novel class of biphenyl pyrazole sodium channel blockers for treatment of neuropathic pain” (Bioorg Med Chem Lett, 2010).

Data set [1] deals with Mus musculus. The data set is described as follows: Neurotoxicity in conscious mouse assessed as effect on behavior at 100 mg/kg after 5 hrs. The data set is classed as toxicity, organism-based. Details: dose 100 mg/kg. To be noted: in vivo.
The subject of data set [2] is Mus musculus. The data set is described as follows: Neurotoxicity in conscious mouse assessed as effect on CNS function at 100 mg/kg after 24 hrs. The settings on record: in vivo. The class given is toxicity, organism-based, Central nervous system. Also on record: dose 100 mg/kg.
Data set [3] deals with Plasma. The experiment in a line: Plasma concentration in dog at 10 mg/kg, iv. The class given is ADME, organism-based, Canis lupus familiaris. Details: dose 10 mg/kg, route intravenous. To be noted: in vivo.
Data set [4] relates to Canis familiaris. The experiment in a line: Cardiotoxicity in anesthetized dog assessed as effect on QTc interval at 10 mg/kg, iv. The class given is toxicity, organism-based, Canis lupus familiaris. Details: dose 10 mg/kg, route intravenous. To be noted: in vivo.
Data set [5] deals with Canis familiaris. The experiment in a line: Cardiotoxicity in anesthetized dog assessed as effect on QRS interval at 10 mg/kg, iv. Also on record: dose 10 mg/kg, route intravenous. The data set is classed as toxicity, organism-based, Canis lupus familiaris. To be noted: in vivo.
For data set [6], the system named is Canis familiaris. The experiment in a line: Cardiotoxicity in anesthetized dog assessed as effect on heart rate at 3 mg/kg, iv. Also on record: dose 3 mg/kg, route intravenous. The data set is classed as toxicity, organism-based, Canis lupus familiaris. To be noted: in vivo.
Data set [7] concerns Rattus norvegicus. The experiment in a line: Neurotoxicity in rat assessed as delay in motor coordination at 100 mg/kg, po by rotarod test (reference value: 18%). The class given is toxicity, organism-based. Also on record: dose 100 mg/kg, route oral. The settings on record: in vivo.
The test system of data set [8] is Rattus norvegicus. The data set is described as follows: Antiallodynic activity in rat spinal nerve ligation model of neuropathic pain assessed as reversal of allodynia at 30 mg/kg, po after 4 hrs. The data set is classed as functional.
The subject of data set [9] is Rattus norvegicus. The data set is described as follows: Antiallodynic activity in rat spinal nerve ligation model of neuropathic pain assessed as reversal of allodynia at 30 mg/kg, po after 2 hrs. The data set is classed as functional.
For data set [10], the system named is Rattus norvegicus. The data set is described as follows: Antiallodynic activity in rat spinal nerve ligation model of neuropathic pain assessed as reversal of allodynia at 3 mg/kg, po after 2 hrs. The data set is classed as functional.
The nature of data set [11]: Cmax in dog at 60 mg/kg, po. The settings on record: in vivo. Details: dose 60 mg/kg, route oral. The data set is classed as ADME, organism-based, Canis lupus familiaris.
Data set [12] is described as follows: Bioavailability in dog at 0.5 mg/kg, iv and 2 mg/kg, po. The class given is ADME, organism-based, Canis lupus familiaris. The settings on record: in vivo.
Data set [13] deals with Rattus norvegicus. The experiment in a line: Clearance in rat plasma at 1 mg/kg, iv and 3 mg/kg, po. The class given is ADME, organism-based. To be noted: in vivo.
Data set [14] addresses Cytochrome P450 3A4 (Homo sapiens, UniProt P08684). The data set is described as follows: Inhibition of CYP3A4. The class given is ADME.
Data set [15] deals with Sodium channel protein type 10 subunit alpha (Homo sapiens, UniProt Q9Y5Y9). The data set is described as follows: Inhibition of human Nav1.8 by VIPR assay.
Data set [16] concerns Rattus norvegicus. The experiment in a line: Antiallodynic activity in rat spinal nerve ligation model of neuropathic pain assessed as reversal of allodynia at 10 mg/kg, po after 2 hrs. The class given is functional. The settings on record: Rattus norvegicus, Spinal nerve, 2 h.
In data set [17] the test system is Mus musculus. The experiment in a line: Neurotoxicity in conscious mouse assessed as effect on behavior at 100 mg/kg after 24 hrs. The class given is toxicity, organism-based. Also on record: dose 100 mg/kg. The settings on record: in vivo.
The test system of data set [18] is Mus musculus. The experiment in a line: Neurotoxicity in conscious mouse assessed as effect on motor activity at 100 mg/kg after 2 hrs. The class given is toxicity, organism-based. Details: dose 100 mg/kg. To be noted: in vivo.

Cytochrome P450 3A4, sequence (P08684 whole entry): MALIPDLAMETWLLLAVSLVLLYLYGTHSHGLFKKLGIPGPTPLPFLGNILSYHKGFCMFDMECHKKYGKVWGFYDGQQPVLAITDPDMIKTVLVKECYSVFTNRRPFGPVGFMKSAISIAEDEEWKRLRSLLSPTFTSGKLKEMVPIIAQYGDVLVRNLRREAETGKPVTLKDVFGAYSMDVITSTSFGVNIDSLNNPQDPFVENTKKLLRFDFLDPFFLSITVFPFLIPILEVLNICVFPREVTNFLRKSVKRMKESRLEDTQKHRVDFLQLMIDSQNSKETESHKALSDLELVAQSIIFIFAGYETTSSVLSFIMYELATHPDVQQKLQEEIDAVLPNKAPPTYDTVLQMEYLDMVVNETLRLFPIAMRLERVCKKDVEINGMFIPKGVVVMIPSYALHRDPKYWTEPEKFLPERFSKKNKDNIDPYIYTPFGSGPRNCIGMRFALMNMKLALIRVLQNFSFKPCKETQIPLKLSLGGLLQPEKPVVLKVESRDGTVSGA
Sodium channel protein type 10 subunit alpha, sequence (Q9Y5Y9 whole entry): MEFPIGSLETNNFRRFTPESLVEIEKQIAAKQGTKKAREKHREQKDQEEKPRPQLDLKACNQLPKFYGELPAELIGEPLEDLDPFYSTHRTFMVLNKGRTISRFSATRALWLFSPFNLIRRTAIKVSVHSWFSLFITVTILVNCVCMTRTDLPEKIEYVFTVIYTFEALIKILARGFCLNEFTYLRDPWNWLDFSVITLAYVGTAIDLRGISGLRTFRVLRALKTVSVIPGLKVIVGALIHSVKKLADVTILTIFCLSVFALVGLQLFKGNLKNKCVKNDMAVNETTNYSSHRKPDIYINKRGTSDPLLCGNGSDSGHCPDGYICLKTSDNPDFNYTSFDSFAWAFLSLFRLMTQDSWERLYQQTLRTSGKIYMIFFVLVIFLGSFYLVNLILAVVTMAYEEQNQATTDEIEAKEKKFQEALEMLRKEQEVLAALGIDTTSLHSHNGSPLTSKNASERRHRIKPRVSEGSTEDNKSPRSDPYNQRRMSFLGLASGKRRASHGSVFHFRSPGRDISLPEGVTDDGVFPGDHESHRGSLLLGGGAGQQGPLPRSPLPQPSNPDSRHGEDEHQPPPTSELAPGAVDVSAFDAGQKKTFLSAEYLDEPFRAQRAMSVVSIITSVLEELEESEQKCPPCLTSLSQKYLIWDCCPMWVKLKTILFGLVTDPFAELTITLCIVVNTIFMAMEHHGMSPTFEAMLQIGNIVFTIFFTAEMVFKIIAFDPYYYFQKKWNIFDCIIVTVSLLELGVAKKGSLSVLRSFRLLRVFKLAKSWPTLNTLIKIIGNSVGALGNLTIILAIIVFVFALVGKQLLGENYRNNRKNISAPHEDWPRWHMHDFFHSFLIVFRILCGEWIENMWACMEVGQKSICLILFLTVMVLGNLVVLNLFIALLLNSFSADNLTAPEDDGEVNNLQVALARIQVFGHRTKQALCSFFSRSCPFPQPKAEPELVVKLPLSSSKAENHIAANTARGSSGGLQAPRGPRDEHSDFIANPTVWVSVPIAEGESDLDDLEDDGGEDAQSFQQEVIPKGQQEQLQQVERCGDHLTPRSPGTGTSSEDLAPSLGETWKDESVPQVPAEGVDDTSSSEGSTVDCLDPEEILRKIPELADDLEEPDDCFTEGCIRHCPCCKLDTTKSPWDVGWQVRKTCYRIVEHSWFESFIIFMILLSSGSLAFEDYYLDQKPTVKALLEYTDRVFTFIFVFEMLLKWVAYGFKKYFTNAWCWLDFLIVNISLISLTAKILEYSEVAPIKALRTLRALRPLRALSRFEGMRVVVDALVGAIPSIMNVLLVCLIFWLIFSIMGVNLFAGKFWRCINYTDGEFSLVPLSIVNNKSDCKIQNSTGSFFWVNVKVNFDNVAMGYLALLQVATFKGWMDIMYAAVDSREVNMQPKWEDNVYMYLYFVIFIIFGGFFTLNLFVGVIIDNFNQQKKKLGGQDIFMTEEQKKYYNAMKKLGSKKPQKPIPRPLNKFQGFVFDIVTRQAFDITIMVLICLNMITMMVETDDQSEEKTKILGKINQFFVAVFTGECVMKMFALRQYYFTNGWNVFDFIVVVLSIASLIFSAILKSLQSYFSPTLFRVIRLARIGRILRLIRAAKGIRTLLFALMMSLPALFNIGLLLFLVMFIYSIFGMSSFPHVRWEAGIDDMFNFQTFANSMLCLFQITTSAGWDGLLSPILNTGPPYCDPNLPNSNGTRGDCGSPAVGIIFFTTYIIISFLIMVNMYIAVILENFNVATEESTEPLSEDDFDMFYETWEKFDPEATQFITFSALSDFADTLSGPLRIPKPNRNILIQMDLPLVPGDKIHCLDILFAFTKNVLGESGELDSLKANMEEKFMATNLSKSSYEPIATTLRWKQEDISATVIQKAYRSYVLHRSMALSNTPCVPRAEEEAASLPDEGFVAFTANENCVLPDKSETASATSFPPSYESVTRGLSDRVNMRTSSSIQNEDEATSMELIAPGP

For `NC(=O)c1cc(C(N)=O)n(-c2cccc(-c3cc(C(F)(F)F)ccc3C(F)(F)F)c2)n1`, the Activity entry is recorded as “Non-toxic” in data set [1]; “Non-toxic” in [2]; “Non-toxic” in data set [4]; “Non-toxic” in data set [5]; “Non-toxic” in data set [6]; -11% in [7]. Further, the Activity entry in data set [17] and in data set [18] was “Non-toxic” throughout. The compound also showed a concentration in data set [3] of 78.2 µM. Besides, the inhibition in vivo at 30 mg/kg in data set [8] came out at 59%; in [9] it was 56%. Moreover, the inhibition in vivo at 3 mg/kg in [10] came to 18%. Besides, the Cmax in data set [11] turned out to be 24.4 µM. The bioavailability in [12] was 33%. Moreover, the clearance in data set [13] worked out at 5 mL/min/kg. The IC50 is over 100000 nM in data set [14] and 2000 nM in data set [15]. In addition, the inhibition in vivo at 10 mg/kg in [16] was determined as 44%.
